Measurements taken from article PMC5457731, “Molecular cloning, expression, and characterization of four novel thermo-alkaliphilic enzymes retrieved from a metagenomic library” (Biotechnology for Biofuels, 2017).

Tests used:
Assay in all cases: pNP release at […] nm, Lineweaver-Burk
Conditions in all cases: 50 mM Tris-HCl pH 7.5, 40 °C, 15 min
[1] = test system: T1, protein 1 (gene 1 product, fosmid NT2-2); assay type: biochemical, uncultured bacterium
T1 construct: full-length, pET28b(+) His-tags at N and C termini, E. coli Origami2(DE3) pLysS, ~116 kDa, gene amplicon 3146 bp

[2] = test system: T2, protein 2 (gene 2 product, fosmid T5-5); assay type: biochemical, uncultured bacterium
T2 construct: full-length, pET28b(+) His-tags at N and C termini, E. coli Origami2(DE3) pLysS, ~85 kDa, gene amplicon 2410 bp

[3] = test system: T3, protein 6 (gene 6 product, fosmid NT18-17); assay type: biochemical
T3 construct: full-length, pET28b(+) His-tags at N and C termini, E. coli Origami2(DE3) pLysS, ~22 kDa, gene amplicon 673 bp; alpha-glucosidase assignment unusual, host contaminant possible

[4] = test system: T4, protein 5 (gene 5 product, fosmid 10BT); assay type: biochemical
T4 construct: full-length, pET28b(+) His-tags at N and C termini, E. coli Origami2(DE3) pLysS, ~45 kDa, gene amplicon 1262 bp; alpha-glucosidase assignment unusual, host contaminant possible

## O=[N+]([O-])c1ccc(O[C@@H]2O[C@H](CO)[C@H](O)[C@H](O)[C@H]2O)cc1 [pNP-β-D-galactopyranoside]
[1]
  Km: 100 µM

## O=[N+]([O-])c1ccc(O[C@@H]2OC[C@H](O)[C@H](O)[C@H]2O)cc1 [pNP-α-L-arabinopyranoside]
[2]
  Km: 300 µM

## O=[N+]([O-])c1ccc(O[C@@H]2OC[C@@H](O)[C@H](O)[C@H]2O)cc1 [pNP-β-D-xylopyranoside]
[2]
  Km: 1000 µM

## O=[N+]([O-])c1ccc(O[C@H]2O[C@H](CO)[C@@H](O)[C@H](O)[C@H]2O)cc1 [pNP-α-D-glucopyranoside]
[3]
  Km: 21400 µM
[4]
  Km: 7400 µM
